System: lungs
Assay: Antigen-induced elevation of lung perfusion pressure (isolated perfused sensitized lung, ovalbumen)
Parameters: species or system guinea pig (Dunkin Hartley)
Settings: Cavia porcellus; perfused lungs of ovalbumen-sensitized guinea pigs; compound in krebs fluid 30 minutes prior to second antigen dose (15 μg ovalbumen); at least four lungs per concentration; read-out: IC50 (inhibition of antigen induced broncho-constriction)
Experimental: Antigen-induced elevation of lung perfusion pressure
Male Dunkin Hartley guinea pigs (Porcellus) weighing between 450-700 g were used (four per test concentration) and were housed in cages. The animals were sensitized by two weekly exposures to 1% W/V aerosol ovalbumen. The animals were anaesthetized with 2.5 mg/kg diazepam i.p. and 1 ml/kg Hyponorm i.m. Following anaethesia, the animals were exsanguinated by severing both carotid arteries and the chest was opened and the lungs removed, split into two at the carina and both cannulated via the main lobar bronchus and connected to a perfusion system. The lungs were perfused with aerated krebs fluid (95% O2 :5% CO2) at 37° C. and 5 μg in 0.1 ml Ovalbumen was injected through an injection port proximal to each lung. Elevation of perfusion pressure by the antigen was recorded and sixty minutes later, 15 μg of ovalbumen were administered. The test compounds were added to the krebs fluid reservoir thirty minutes prior to the second antigen dose. For each weekly batch of animals used, control measurements were made without treatment (n=10 ). The second antigen response was expressed as a percentage of the first. For each test, at least four lungs from four different animals were used per concentration. The percentage inhibition of antigen induced broncho-constriction was calculated.

How did the IC50 turn out when `CCOC(=O)C(C)c1ccc2c(c1)sc1nc(=O)ccn12` (stereo not drawn) [Example 2, Ethyl 2-oxo-2H-pyrimido[2,1-b]benzothiazole-8-α-methylacetate] was run?
The IC50 was greater than 100 µM.

With `CCOC(=O)Cc1ccc2c(c1)sc1nc(=O)cc(-c3ccccc3)n12` [Example 3, Ethyl 2-oxo-4-phenyl-2H-pyrimido[2,1-b]benzothiazole-8-acetate] as the molecule, how does the IC50 read?
Its IC50 is 1 µM.

Which IC50 does the source give for `COC(=O)Cc1ccc2c(c1)sc1nc(=O)cc(-c3ccccc3)n12` [Example 4, Methyl 2-oxo-4-phenyl-2H-pyrimido[2,1-b]benzothiazole-8-acetate] here?
Its IC50 is 10 µM.

With `CCCOC(=O)Cc1ccc2c(c1)sc1nc(=O)cc(-c3ccccc3)n12` [Example 5, n-Propyl 2-oxo-4-phenyl-2H-pyrimido[2,1-b]benzothiazole-8-acetate] as the molecule, how does the IC50 read?
The IC50 was less than 10 µM.

With `CC(C)OC(=O)Cc1ccc2c(c1)sc1nc(=O)cc(-c3ccccc3)n12` [Example 6, Isopropyl 2-oxo-4-phenyl-2H-pyrimido[2,1-b]benzothiazole-8-acetate] as the molecule, how does the IC50 read?
The IC50 was 1 to 10 µM.

For `CCCCOC(=O)Cc1ccc2c(c1)sc1nc(=O)cc(-c3ccccc3)n12` [Example 7, n-Butyl 2-oxo-4-phenyl-2H-pyrimido[2,1-b]benzothiazole-8-acetate], which IC50 is on record?
Its IC50 is greater than 10 µM.

How did the IC50 turn out when `CCOC(=O)Cc1ccc2c(c1)sc1nc(=O)cc(-c3ccc(OC)cc3)n12` [Example 9, Ethyl 4-(4-methoxyphenyl)-2-oxo-2H-pyrimido[2,1-b]benzothiazole-8-acetate] was run?
Its IC50 is 1 µM.

How did the IC50 turn out when `CCOC(=O)Cc1ccc2c(c1)sc1nc(=O)cc(-c3ccc([N+](=O)[O-])cc3)n12` [Example 10, Ethyl 4-(4-nitrophenyl)-2-oxo-2H-pyrimido[2,1-b]benzothiazole-8-acetate] was run?
The IC50 was 10 to 100 µM.

`CCOC(=O)Cc1ccc2c(c1)sc1nc(=O)cc(-c3ccc(Cl)cc3)n12` [Example 11, Ethyl 4-(4-chlorophenyl)-2-oxo-2H-pyrimido[2,1-b]benzothiazole-8-acetate] was tested. Which IC50 did it give?
The IC50 was 10 µM.

How did the IC50 turn out when `CCOC(=O)Cc1ccc2c(c1)sc1nc(=O)cc(-c3ccccc3Cl)n12` [Example 12, Ethyl 4-(2-chlorophenyl)-2-oxo-2H-pyrimido[2,1-b]benzothiazole-8-acetate] was run?
The IC50 was 0.1 to 1 µM.

With `CCOC(=O)Cc1ccc2c(c1)sc1nc(=O)cc(-c3ccc(C)cc3)n12` [Example 13, Ethyl 4-(4-methylphenyl)-2-oxo-2H-pyrimido[2,1-b]benzothiazole-8-acetate] as the molecule, how does the IC50 read?
Its IC50 is less than 1 µM.

`CCOC(=O)Cc1ccc2c(c1)sc1nc(=O)cc(-c3cccc(Cl)c3)n12` [Example 14, Ethyl 4-(3-chlorophenyl)-2-oxo-2H-pyrimido[2,1-b]benzothiazole-8-acetate] was tested. Which IC50 did it give?
The IC50 was no more than 1 µM.

With `CCOC(=O)Cc1ccc2c(c1)sc1nc(=O)cc(C)n12` [Example 15, Ethyl 4-methyl-2-oxo-2H-pyrimido[2,1-b]benzothiazole-8-acetate] as the molecule, how does the IC50 read?
Its IC50 is 10 to 100 µM.

For `CCOC(=O)Cc1ccc2c(c1)sc1nc(=O)cc(CC)n12` [Example 16, Ethyl 4-ethyl-2-oxo-2H-pyrimido[2,1-b]benzothiazole-8-acetate], which IC50 is on record?
The IC50 was 100 µM.

How did the IC50 turn out when `CCCc1cc(=O)nc2sc3cc(CC(=O)OCC)ccc3n12` [Example 17, Ethyl 2-oxo-4-n-propyl-2H-pyrimido[2,1-b]benzothiazole-8-acetate] was run?
The IC50 was 1 to 10 µM.

With `CCCCc1cc(=O)nc2sc3cc(CC(=O)OCC)ccc3n12` [Example 18, Ethyl 4-n-butyl-2-oxo-2H-pyrimido[2,1-b]benzothiazole-8-acetate] as the molecule, how does the IC50 read?
Its IC50 is 10 µM.

How did the IC50 turn out when `CCOC(=O)C(C)c1ccc2c(c1)sc1nc(=O)cc(-c3ccccc3)n12` (stereo not drawn) [Example 20, Ethyl α-methyl-2-oxo-4-phenyl-2H-pyrimido[2,1-b]benzothiazole-8-acetate] was run?
Its IC50 is 0.1 µM.

With `CCOC(=O)C(C)c1ccc2c(c1)sc1nc(=O)cc(-c3ccc(Cl)cc3)n12` (stereo not drawn) [Example 22, Ethyl α-methyl 4-(4-chlorophenyl)-2-oxo-2H-pyrimido[2,1-b]benzothiazole-8-acetate] as the molecule, how does the IC50 read?
Its IC50 is 0.1 to 1 µM.

How did the IC50 turn out when `CCOC(=O)C(C)c1ccc2c(c1)sc1nc(=O)cc(-c3cccc(Cl)c3)n12` (stereo not drawn) [Example 23, Ethyl α-methyl 4-(3-chlorophenyl) 2-oxo-2H-pyrimido[2,1-b]benzothiazole-8-acetate] was run?
Its IC50 is no more than 1 µM.

For `CCCc1cc(=O)nc2sc3cc(C(C)C(=O)OCC)ccc3n12` (stereo not drawn) [Example 24, Ethyl α-methyl-2-oxo-4-n-propyl-2H-pyrimido[2,1-b]benzothiazole-8-acetate], which IC50 is on record?
Its IC50 is greater than 10 µM.

Which IC50 does the source give for `CCOC(=O)Cc1ccc2c(c1)sc1nc(=O)cc(C(C)C)n12` [Example 25, Ethyl 4-isopropyl-2-oxo-2H-pyrimido[2,1-b]benzothiazole-8-acetate] here?
Its IC50 is 10 to 100 µM.

`CCOC(=O)C(C)c1ccc2c(c1)sc1nc(=O)cc(Cc3ccccc3)n12` (stereo not drawn) [Example 27, Ethyl α-methyl-4-benzyl-2-oxo-2H-pyrimido[2,1-b]benzothiazole-8-acetate] was tested. Which IC50 did it give?
The IC50 was 10 to 100 µM.

With `CCOC(=O)C(C)c1ccc2c(c1)sc1nc(=O)cc(C(C)C)n12` (stereo not drawn) [Example 28, Ethyl α-methyl-4-isopropyl-2-oxo-2H-pyrimido[2,1-b]benzothiazole-8-acetate] as the molecule, how does the IC50 read?
The IC50 was 10 to 100 µM.

With `CCOC(=O)C(CC)c1ccc2c(c1)sc1nc(=O)cc(-c3ccccc3)n12` (stereo not drawn) [Example 29, Ethyl α-ethyl-4-phenyl-2-oxo-2H-pyrimido[2,1-b]benzothiazole-8-acetate] as the molecule, how does the IC50 read?
Its IC50 is 0.1 µM.

With `CCOC(=O)Cc1ccc2c(c1)sc1nc(=O)cc(C3CCCCC3)n12` [Example 30, Ethyl 4-cyclohexyl-2-oxo-2H-pyrimido[2,1-b]benzothiazole-8-acetate] as the molecule, how does the IC50 read?
The IC50 was 1 to 10 µM.

With `CCOC(=O)C(C)c1ccc2c(c1)sc1nc(=O)cc(C3CCCCC3)n12` (stereo not drawn) [Example 31, Ethyl α-methyl-4-cyclohexyl-2-oxo-2H-pyrimido[2,1-b]benzothiazole-8-acetate] as the molecule, how does the IC50 read?
Its IC50 is less than 10 µM.

Which IC50 does the source give for `CCCC(C(=O)OCC)c1ccc2c(c1)sc1nc(=O)cc(-c3ccccc3)n12` (stereo not drawn) [Example 32, Ethyl α-propyl-4-phenyl-2-oxo-2H-pyrimido[2,1-b]benzothiazole-8-acetate] here?
Its IC50 is 1 µM.

`CCOC(=O)C(c1ccc2c(c1)sc1nc(=O)cc(-c3ccccc3)n12)C(C)C` (stereo not drawn) [Example 33, Ethyl α-isopropyl-4-phenyl-2-oxo-2H-pyrimido[2,1-b]benzothiazole-8-acetate] was tested. Which IC50 did it give?
Its IC50 is 10 to 100 µM.

`CCCCC(C(=O)OCC)c1ccc2c(c1)sc1nc(=O)cc(-c3ccccc3)n12` (stereo not drawn) [Example 34, Ethyl α-butyl-4-phenyl-2-oxo-2H-pyrimido[2,1-b]benzothiazole-8-acetate] was tested. Which IC50 did it give?
Its IC50 is 1 to 10 µM.

`CC(C)OC(=O)C(C)c1ccc2c(c1)sc1nc(=O)cc(-c3ccccc3)n12` (stereo not drawn) [Example 35, Isopropyl α-methyl-4-phenyl-2-oxo-2H-pyrimido[2,1-b]benzothiazole-8-acetate] was tested. Which IC50 did it give?
Its IC50 is 0.1 to 1 µM.

`CCOC(=O)C(C)(C)c1ccc2c(c1)sc1nc(=O)cc(-c3ccccc3)n12` [Example 36, Ethyl α,α-dimethyl-4-phenyl-2-oxo-2H-pyrimido[2,1-b]benzothiazole-8-acetate] was tested. Which IC50 did it give?
Its IC50 is 1 to 10 µM.

How did the IC50 turn out when `CCOC(=O)C(C)(CC)c1ccc2c(c1)sc1nc(=O)cc(-c3ccccc3)n12` (stereo not drawn) [Example 37, Ethyl α-ethyl-α-methyl-4-phenyl-2-oxo-2H-pyrimido[2,1-b]benzothiazole-8-acetate] was run?
Its IC50 is 1 µM.

`CCCC(C)(C(=O)OCC)c1ccc2c(c1)sc1nc(=O)cc(-c3ccccc3)n12` (stereo not drawn) [Example 38, Ethyl α-methyl-α-propyl-4-phenyl-2-oxo-2H-pyrimido[2,1-b]benzothiazole-8-acetate] was tested. Which IC50 did it give?
Its IC50 is 1 µM.

From patent US4762840A, “Pyrimido[2,1-b]benzothiazoles having antiallergic activity” (Roussel Uclaf, priority 1984, dated 1988)
